What all share (conditions): exposure time: 90 min
One assay relates to 1083 (donor line of iPSC-derived cardiomyocytes). Nature of the assay: POD (EC05) for decrease in beat frequency (negative chronotrope) vs vehicle; higher = less potent (higher point of departure). On the procedure: (§1)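 Human iPSC-derived cardiomyocytes from 16 donors were exposed for 90 min at 37 °C to each PFAS at 0.1, 1, 10 and 100 µM in 0.5% DMSO, 384-well plates. Kinetic Ca2+ flux (FLIPR) and Hoechst nuclei counts were normalised to vehicle wells and fitted with a hierarchical Bayesian Hill model to give donor-specific PODs: EC05 for beat-rate increase or decrease and for decay-to-rise ratio increase (QT proxy), EC95 for peak-frequency loss (asystole), EC10 for total cell number loss. 0.03 µM is the lower bound.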

Assay [1] concerns 11235 (donor line of iPSC-derived cardiomyocytes). Described as above. On the procedure: as §1
The next assay deals with 1309 (donor line of iPSC-derived cardiomyocytes). The assay is described as above. As to the method:
as §1

Assay [2] concerns 1368 (donor line of iPSC-derived cardiomyocytes). The assay is described as above. As to the method: as §1
The subject of the next assay is 1392 (donor line of iPSC-derived cardiomyocytes). Described as above. On the procedure: as §1
Assay [3] has as its system 1434 (donor line of iPSC-derived cardiomyocytes). The assay is described as above. On the procedure:
as §1

The subject of a further assay is 1516 (donor line of iPSC-derived cardiomyocytes). The assay is described as above. On the procedure:
as §1

For a further assay, the system named is 1518 (donor line of iPSC-derived cardiomyocytes). The assay is described as above. As to the method:
as §1

A further assay deals with 1531 (donor line of iPSC-derived cardiomyocytes). The description is as above. On the procedure: as §1
The subject of another assay is 1535 (donor line of iPSC-derived cardiomyocytes). Described as above. As to the method: as §1
Assay [4] deals with 1565 (donor line of iPSC-derived cardiomyocytes). The description is as above. As to the method: as §1
The subject of another assay is 20032 (donor line of iPSC-derived cardiomyocytes). Described as above. On the procedure:
as §1

The test system of a further assay is 20084 (donor line of iPSC-derived cardiomyocytes). Described as above. As to the method:
as §1

The subject of the next assay is 30145 (donor line of iPSC-derived cardiomyocytes). The description is as above. As to the method:
as §1

Assay [5] relates to 30171 (donor line of iPSC-derived cardiomyocytes). The assay is described as above. As to the method: as §1
The subject of assay [6] is 11235. Nature of the assay: POD (EC05) for increase in Ca2+ transient decay-to-rise ratio (QT prolongation) vs vehicle; higher = less potent (higher point of departure). An outline of the steps:
(§2)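 For each of 16 donors, iPSC-derived human cardiomyocytes were cultured 14 days in gelatin-coated 384-well plates and given a fluorescent Ca2+ dye for 2 h. Exposure lasted 90 min at 37 °C at 0.1, 1, 10 and 100 µM final, with 0.5% DMSO, and a FLIPR Tetra captured Ca2+ flux at 8 frames/s over 100 s both before and afterwards. Points of departure per donor were estimated by hierarchical Bayesian Hill fits to vehicle-normalised beat frequency, decay-to-rise ratio or peak frequency, using thresholds of 5% change, or 95% loss for peak frequency.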

For assay [7], the system named is 1368. The description is as above. An outline of the steps: as §2
Assay [8] deals with 1434. The description is as above. In outline:
as §2

The subject of assay [9] is 1565. The description is as above. An outline of the steps:
as §2

Assay [10] deals with 30171. Described as above. An outline of the steps: as §2

Consider `O=C(O)CCC(F)(F)C(F)(F)C(F)(F)F` [3:3 Fluorotelomer carboxylic acid], for which the POD vs vehicle with 1083, in the assay with 11235 [1], with 1309, in the assay with 1368 [2], in the assay with 1392 and in the assay with 1434 [3] was > 100 µM in each case. In addition, the POD vs vehicle with 1516, in the assay on 1518, in the assay with 1531, in the assay with 1535, with 1565 [4] and in the assay with 20032 was > 100 µM each time. The POD vs vehicle in the assay on 20084, in the assay with 30145, in the assay on 30171 [5], in the assay on 11235 [6], in the assay on 1368 [7] and in the assay with 1434 [8] was > 100 µM in each case. The POD vs vehicle with 1565 [9] and in the assay on 30171 [10] was > 100 µM each time.

As to `OCC(F)(F)C(F)(F)C(F)(F)C(F)F` [1H,1H,5H-Perfluoropentanol], the POD vs vehicle in the assay with 1083, in the assay with 11235 [1], in the assay with 1309, with 1368 [2], in the assay with 1392 and with 1434 [3] was > 100 µM throughout. Moreover, the POD vs vehicle is > 100 µM with 1516; > 100 µM in the assay with 1518; 45.9 µM in the assay with 1531; > 100 µM in the assay with 1535; > 100 µM with 1565 [4]; > 100 µM in the assay on 20032. Further, the POD vs vehicle is 35.1 µM with 20084; > 100 µM with 30145; > 100 µM in the assay on 30171 [5]; > 100 µM in the assay on 11235 [6]; > 100 µM with 1368 [7]; > 100 µM in the assay on 1434 [8]. Also, the POD vs vehicle with 1565 [9] and in the assay with 30171 [10] was > 100 µM each time.

Regarding `O=C(O)CCC(F)(F)C(F)(F)C(F)(F)C(F)(F)C(F)(F)C(F)(F)C(F)(F)F` [3-Perfluoroheptylpropanoic_acid], the POD vs vehicle was > 100 µM in the assay with 1083; 20.2 µM in the assay with 11235 [1]; > 100 µM in the assay on 1309; > 100 µM in the assay on 1368 [2]; > 100 µM with 1392; 21 µM in the assay with 1434 [3]. Besides, the POD vs vehicle was 56.9 µM with 1516; > 100 µM in the assay with 1518; 80.7 µM with 1531; > 100 µM in the assay with 1535; > 100 µM with 1565 [4]; > 100 µM with 20032. In addition, the POD vs vehicle with 20084 is > 100 µM; in the assay with 30145, > 100 µM; in the assay with 30171 [5] it was 24.9 µM; in the assay with 11235 [6], > 100 µM; with 1368 [7], > 100 µM; in the assay on 1434 [8], > 100 µM. In addition, the POD vs vehicle in the assay on 1565 [9] and in the assay on 30171 [10] was > 100 µM throughout.

Regarding `O=C(O)C(F)(F)C(F)(F)C(F)(F)C(F)(F)C(F)(F)C(F)(F)C(F)(F)F` [Perfluorooctanoic_acid], the POD vs vehicle in the assay with 1083 is > 100 µM; in the assay with 11235 [1], 5.14 µM; in the assay on 1309 it was 11.1 µM; in the assay with 1368 [2], > 100 µM; in the assay on 1392, > 100 µM; with 1434 [3], 26.1 µM. Moreover, the POD vs vehicle in the assay with 1516 is 9 µM; in the assay on 1518, 92.7 µM; with 1531 it was 49 µM; in the assay on 1535, 41.8 µM; in the assay on 1565 [4], > 100 µM; in the assay on 20032, 51.5 µM. The POD vs vehicle is > 100 µM with 20084; > 100 µM in the assay on 30145; 7.04 µM with 30171 [5]; > 100 µM with 11235 [6]; > 100 µM with 1368 [7]; > 100 µM with 1434 [8]. In addition, the POD vs vehicle with 1565 [9] and in the assay on 30171 [10] was > 100 µM in each case.

For `O=S(=O)([O-])C(F)(F)C(F)(F)C(F)(F)C(F)(F)F.[K+]` [Potassium_perfluorobutanesulfonate], the POD vs vehicle was > 100 µM in the assay with 1083; 67.8 µM in the assay on 11235 [1]; > 100 µM in the assay on 1309; > 100 µM in the assay with 1368 [2]; > 100 µM in the assay with 1392; > 100 µM with 1434 [3]. For the same molecule, the POD vs vehicle in the assay with 1516, in the assay with 1518, in the assay with 1531, in the assay on 1535, in the assay with 1565 [4] and with 20032 was > 100 µM each time. The POD vs vehicle in the assay with 20084, in the assay on 30145, in the assay with 30171 [5], in the assay on 11235 [6], with 1368 [7] and in the assay on 1434 [8] was > 100 µM each time. In addition, the POD vs vehicle with 1565 [9] and with 30171 [10] was > 100 µM in each case.

For the origin of these results see the supplement of paper PMC11368000.
